Measured values reported in PubChem BioAssay (NCI).
Where “and” joins values, the source holds several entries; their conditions need not be identical. Identical values can stand only once.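 Step 1: Grow cells in 96-well plates. Step 2: Expose to compound for 48 hours at 5 concentrations. Step 3: Interpolate endpoints linearly; if unreached, use highest concentration. GI50: concentration for 50% inhibition of growth. TGI marks complete inhibition of growth.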

Experiments:
Assay in all cases: growth of human tumour cells (NCI), 48 h
[1] = system: NCI-H522 lung
[2] = system: A498 renal
[3] = system: DLD-1 colon
[4] = system: HOP-62 NSCLC
[5] = system: OVCAR-3 ovarian
[6] = system: UO-31 renal
[7] = system: SK-OV-3 ovarian
[8] = system: LXFL 529 NSCLC
[9] = system: MDA-MB-231 breast
[10] = system: T-47D breast

SMILES | TGI [1] | TGI [2] [µM] | TGI [3] [µM] | TGI [4] | TGI [5] | TGI [6] | TGI [7] | TGI [8] [µM] | TGI [9] [µM] | TGI [10] [µM] | GI50 [1] [µM] | GI50 [4] [µM] | GI50 [5] [µM] | GI50 [6] [µM] | GI50 [7] [µM] | GI50 [2] [µM] | GI50 [9] [µM] | GI50 [10] [µM] | GI50 [3] [µM] | GI50 [8] [µM]
CC12CCC(=O)N1c1ccc([N+](=O)[O-])cc1N2 (centres undefined) | > 100 µM | > 100 | > 100 | > 100 µM | > 100 µM | > 100 µM | > 100 µM | > 100 |  |  |  |  |  |  |  |  |  |  |  | 
Cc1ccccc1NC(=O)C(=O)C(C#N)c1ccccc1C (centres undefined) | > 100 µM | > 100 | > 100 | > 100 µM | > 100 µM | > 100 µM | > 100 µM | > 100 |  |  |  |  |  |  |  |  |  |  |  | 
Cc1ccc(S(=O)(=O)N/N=C(/CC(=O)c2c(C)n([O-])c3ccccc3[n+]2=O)C(=O)Nc2ccccc2C)cc1 | > 100 µM | > 100 | > 100 | > 100 µM | > 100 µM | > 100 µM | > 100 µM | > 100 |  |  |  |  |  |  |  |  |  |  |  | 
CC(=O)OCCOCNC(=S)N/N=C/c1cc(Br)cs1 | > 100 µM | > 100 | > 100 | > 100 µM | > 100 µM | > 100 µM | > 100 µM | > 100 |  |  |  |  |  |  |  |  |  |  |  | 
COCOCC/C=C/C=O | > 100 µM | > 100 | > 100 |  | > 100 µM | > 100 µM | > 100 µM | > 100 |  |  |  |  |  |  |  |  |  |  |  | 
N#CC(c1ccccn1)c1nc2ccccc2[nH]1 (centres undefined) | > 100 µM | > 100 | > 100 | > 100 µM | > 100 µM | > 100 µM | > 100 µM | > 100 |  |  |  |  |  |  |  |  |  |  |  | 
COC1C(N)C(OC2C(Oc3cccc4c(O)c5c(=O)oc6ccc(C)c7c(=O)oc(c34)c5c67)OC(C)C(O)C2(C)O)OC(C)C1O (centres undefined) | 0.181 µM | 0.155 | 0.726 | 0.258 µM | 0.406 µM | 0.82 µM |  | 0.148 | 1.74 | 1.43 |  |  |  |  |  |  |  |  |  | 
O=C(c1nc2ccccc2[nH]c1=O)C(O)c1ccccc1 (centres undefined) | > 100 µM | 99.6 | > 100 | > 100 µM | > 100 µM | > 100 µM | > 100 µM | > 100 |  |  |  |  |  |  |  |  |  |  |  | 
NC(=O)C(=O)C1CCC2=C(Sc3ccccc3N2)C1=O (centres undefined) | > 100 µM | > 100 | > 100 | > 100 µM | > 100 µM | > 100 µM | > 100 µM | > 100 |  |  |  |  |  |  |  |  |  |  |  | 
C[N+](C)(C)CC1CCCC1=O (centres undefined) | 0.0171 µM | 17.7 | 3.15 | > 68 µM | 6.87 µM | 8.79 µM | 30.4 µM | 2.57 | 2.77 | 0.448 |  |  |  |  |  |  |  |  |  | 
CCOC(=O)/C(C#N)=C(O)/C(=C\c1ccc(Br)cc1)NC(=O)c1ccccc1 |  | > 100 | > 100 | > 100 µM | > 100 µM | > 100 µM | > 100 µM | > 100 |  |  |  |  |  |  |  |  |  |  |  | 
CCN(CC)c1ccc2c(c1)Oc1ccc(N(CC)CC)cc1C21Oc2ccccc2-c2c1c1ccccc1n2CC (centres undefined) | 5.06 µM | > 100 | > 100 |  | > 100 µM | 63.2 µM | > 100 µM | > 100 |  |  |  |  |  |  |  |  |  |  |  | 
Cc1ccc(NC(=O)CC2C(=O)Nc3ccccc3S2(=O)=O)c(C)c1 (centres undefined) | 23.6 µM | 31.2 | 43.1 |  | 30.1 µM | 39.8 µM |  | 41 |  |  |  |  |  |  |  |  |  |  |  | 
Cc1nc(C(=O)O)c2ccccc2n1 |  | > 100 | > 100 |  | > 100 µM | > 100 µM | > 100 µM | > 100 |  |  |  |  |  |  |  |  |  |  |  | 
CC(C)(Br)C(=O)C(Br)Br | 3.18 µM and 5.16 µM | > 54.4 | 3.34 | > 56.5 µM and 104 µM | 18.6 µM and 10.6 µM | 31.4 µM and 9.8 µM | 31.3 µM and 69.8 µM | 5.87 | 10 |  | 1.37 | 59.7 | 5.76 | 5.5 | 32.8 |  |  |  |  | 
NC(=O)NNC(=O)NC12CC3CC(CC(C3)C1)C2 | > 100 µM | > 100 | > 100 | > 100 µM | > 100 µM | > 100 µM | > 100 µM | > 100 |  |  |  |  |  |  |  |  |  |  |  | 
Cc1ccc(C)c(N2C(=O)C(=O)C(c3nc4ccccc4s3)/C(=N/NC(=O)NN)C2=O)c1 (centres undefined) | > 100 µM | > 100 | > 100 | > 100 µM | > 100 µM | > 100 µM | > 100 µM | > 100 |  |  |  |  |  |  |  |  |  |  |  | 
O=C1Nc2ccccc2N=CC1NC(=O)C(c1ccccc1)c1ccccc1 (centres undefined) | > 100 µM | > 100 | > 100 | > 100 µM | > 100 µM | > 100 µM | > 100 µM | > 100 |  |  |  |  |  |  |  |  |  |  |  | 
C=C1CCC2[C@@H](CCC3[C@]2(C)CCC[C@]3(C)C(=O)OC)C1CC=O (some centres undefined) | 31.8 µM | 31.9 | 42.9 | 39.8 µM | 27.7 µM | 28.9 µM | 37.7 µM | 30.1 |  |  | 16.3 | 21.2 |  | 14.8 | 21.4 | 17.2 |  |  |  | 
COC(=O)[C@@]1(C(C)CC(=O)O)CCCCC1=O (some centres undefined) | > 100 µM | > 100 | > 100 | > 100 µM | > 100 µM | > 100 µM | > 100 µM | > 100 |  |  |  |  |  |  |  |  |  |  |  | 
CCC1(O)C(=O)OCc2c1cc1n(c2=O)Cc2cc3c(NC(=O)CN)cccc3nc2-1 (centres undefined) | 9.9 µM | 5.65 | > 100 | 0.622 µM | 22.3 µM | 4.82 µM | 31.3 µM | > 75 | > 100 |  | 0.387 | 0.0847 | 3.3 | 0.595 | 0.377 | 0.883 | 58.1 | 0.329 | 11.2 | 5.3
C=CNC(=O)NC(=O)CSc1nnc(-c2ccccc2NC(=O)C(F)(F)F)c(=O)[nH]1 | > 100 µM |  | 22.7 | > 100 µM | > 100 µM | > 100 µM | > 100 µM | > 100 |  |  |  |  |  |  |  |  |  |  |  | 
CC1(c2ccccc2Cl)C(C#N)C(=O)NC(=O)C1C#N (centres undefined) | 54 µM | > 100 | > 100 | > 100 µM | 46.7 µM | > 100 µM | > 100 µM | > 100 |  |  |  |  |  |  |  |  |  |  |  | 
Nc1c([N+](=O)[O-])nc(Cl)c2nncn12 | > 100 µM | > 100 | > 100 | > 100 µM | > 100 µM | > 100 µM | > 100 µM | > 100 |  |  |  |  |  |  |  |  |  |  |  | 
